Data taken from ChEMBL document CHEMBL5634090, “Design of phenothiazine-based cationic amphiphilic derivatives incorporating arginine residues: Potential membrane-active broad-spectrum antimicrobials combating pathogenic bacteria in vitro and in vivo” (Eur J Med Chem, 2023).
Values after ≈ are worked out from the molar mass of the structure shown. Values joined by “and” are separate entries in the source; they are usually repeats but may differ in a detail not shown here. Equal entries are not always repeated. Active and inactive are the calls of the source. The rule behind the calls is not given here.

What was measured:
[1] = Selectivity index, ratio of CC50 for cytotoxicity against mouse NCTC clone 929 cells to MIC for antibacterial activity against Klebsiella pneumoniae ATCC 14581; assay type: toxicity, cell-based; details: read-out: Selectivity Index
[2] = Cytotoxicity against mouse NCTC clone 929 cells assessed as cell survival rate at 6.25 ug/ml by CCK-8 assay relative to control; assay type: toxicity, cell-based; details: NCTC clone 929 (L929) cells, at 6.25 µg/mL, read-out: Activity
Staphylococcus aureus [3] = assay: Antibacterial activity against Staphylococcus aureus ATCC 29213 by microbroth dilution assay; assay type: functional
[4] = Hemolytic activity in rabbit erythrocytes; assay type: toxicity, cell-based, Oryctolagus cuniculus, Erythrocyte
[5] = Cytotoxicity against mouse NCTC clone 929 cells assessed as cell survival rate at 50 ug/ml by CCK-8 assay relative to control; assay type: toxicity, cell-based; details: NCTC clone 929 (L929) cells, at 50 µg/mL, read-out: Activity
[6] = Cytotoxicity against mouse NCTC clone 929 cells by CCK-8 assay; assay type: toxicity, cell-based; details: NCTC clone 929 (L929) cells
[7] = Cytotoxicity against HEK293 cells by CCK-8 assay; assay type: toxicity, cell-based; details: human
[8] = Cytotoxicity against mouse NCTC clone 929 cells assessed as cell survival rate at 3.125 ug/ml by CCK-8 assay relative to control; assay type: toxicity, cell-based; details: NCTC clone 929 (L929) cells, at 3.125 µg/mL, read-out: Activity
[9] = Cytotoxicity against mouse NCTC clone 929 cells assessed as cell survival rate at 25 ug/ml by CCK-8 assay relative to control; assay type: toxicity, cell-based; details: NCTC clone 929 (L929) cells, at 25 µg/mL, read-out: Activity
[10] = Cytotoxicity against HEK293 cells assessed as cell survival rate at 6.25 ug/ml by CCK-8 assay relative to control; assay type: toxicity, cell-based; details: human, at 6.25 µg/mL, read-out: Activity
[11] = Cytotoxicity against HEK293 cells assessed as cell survival rate at 25 ug/ml by CCK-8 assay relative to control; assay type: toxicity, cell-based; details: human, at 25 µg/mL, read-out: Activity
Klebsiella pneumoniae [12] = assay: Antibacterial activity against Klebsiella pneumoniae ATCC 10031 assessed as log reduction in bacterial load at 4 times MIC measured after 2 hrs by time kill assay; assay type: functional
Klebsiella pneumoniae [13] = assay: Antibacterial activity against Klebsiella pneumoniae ATCC 10031 assessed as reduction in bacterial load at 8 times MIC measured after 2 hrs by time kill assay relative to control; assay type: functional; design: scale not given: the % may be the effect or the level left
[14] = Selectivity index, ratio of CC50 for cytotoxicity against mouse NCTC clone 929 cells to MIC for antibacterial activity against Pseudomonas aeruginosa ATCC 9027; assay type: toxicity, cell-based; details: read-out: Selectivity Index
[15] = Selectivity index, ratio of CC50 for cytotoxicity against HEK293 cells to MIC for antibacterial activity against methicillin resistant Staphylococcus aureus NCTC 10442; assay type: toxicity, cell-based; details: human, read-out: Selectivity Index
[16] = Selectivity index, ratio of CC50 for cytotoxicity against HEK293 cells to MIC for antibacterial activity against Escherichia coli ATCC 25922; assay type: toxicity, cell-based; details: human, read-out: Selectivity Index
[17] = Selectivity index, ratio of CC50 for cytotoxicity against HEK293 cells to MIC for antibacterial activity against Klebsiella pneumoniae ATCC 14581; assay type: toxicity, cell-based; details: human, read-out: Selectivity Index
Staphylococcus aureus [18] = assay: Antibacterial activity against Staphylococcus aureus ATCC 29213 in presence of 140 mmol/L Na+ by broth microdilution method; assay type: functional
Staphylococcus aureus [19] = assay: Antibacterial activity against Staphylococcus aureus ATCC 29213 in presence of 2.5 mmol/L Ca2+ by broth microdilution method; assay type: functional
Staphylococcus aureus [20] = assay: Antibacterial activity against Staphylococcus aureus ATCC 29213 in presence of 20 umol/L Fe3+ by broth microdilution method; assay type: functional
Staphylococcus aureus [21] = assay: Antibacterial activity against methicillin resistant Staphylococcus aureus N315 in presence of 1 mmol/L Mg2+ by broth microdilution method; assay type: functional
Staphylococcus aureus [22] = assay: Antibacterial activity against methicillin resistant Staphylococcus aureus NCTC 10442 in presence of 4.5 mmol/L K+ by broth microdilution method; assay type: functional
Klebsiella pneumoniae [23] = assay: Antibacterial activity against Klebsiella pneumoniae ATCC 10031 in presence of 140 mmol/L Na+ by broth microdilution method; assay type: functional
Klebsiella pneumoniae [24] = assay: Antibacterial activity against Klebsiella pneumoniae ATCC 10031 in presence of 19 umol/L Zn2+ by broth microdilution method; assay type: functional
Klebsiella pneumoniae [25] = assay: Antibacterial activity against Klebsiella pneumoniae ATCC 14581 in presence of 2.5 mmol/L Ca2+ by broth microdilution method; assay type: functional
Pseudomonas aeruginosa [26] = assay: Antibacterial activity against Pseudomonas aeruginosa ATCC 9027 in presence of 19 umol/L Fe2+ by broth microdilution method; assay type: functional
Staphylococcus aureus [27] = assay: Antibacterial activity against Staphylococcus aureus ATCC 29213 assessed as cell membrane disruption by SYTOX Green assay; assay type: functional, organism-based
Klebsiella pneumoniae [28] = assay: Antibacterial activity against Klebsiella pneumoniae ATCC 10031 assessed as cell membrane disruption by SYTOX Green assay; assay type: functional, organism-based
Staphylococcus aureus [29] = assay: Antibacterial activity against Staphylococcus aureus ATCC 29213 assessed as loss in membrane integrity at 8 times MIC incubated for 4 hrs by LIVE/DEAD BacLight bacterial viability assay; assay type: functional, organism-based; details: Cell membrane
Staphylococcus aureus [30] = assay: Inhibition of biofilm formation in Staphylococcus aureus ATCC 29213 by crystal violet staining assay; assay type: functional, organism-based; details: dose 0.39-12.5 µg/ml
Staphylococcus aureus [31] = assay: Inhibition of biofilm formation in Staphylococcus aureus ATCC 29213 at 0.39 ug/ml by crystal violet staining assay relative to control; assay type: functional
Klebsiella pneumoniae [32] = assay: Inhibition of biofilm formation in Klebsiella pneumoniae ATCC 10031 at 0.78 ug/ml by crystal violet staining assay relative to control; assay type: functional
Klebsiella pneumoniae [33] = assay: Inhibition of biofilm formation in Klebsiella pneumoniae ATCC 10031 at 3.125 ug/ml by crystal violet staining assay relative to control; assay type: functional
Staphylococcus aureus [34] = assay: Antibiofilm activity against 24 hrs preformed biofilm in Staphylococcus aureus ATCC 29213 assessed as reduction in biofilm viability at 12.5 ug/ml relative to control; assay type: functional; details: dose 12.5 µg/ml
Klebsiella pneumoniae [35] = assay: Antibiofilm activity against 24 hrs preformed biofilm in Klebsiella pneumoniae ATCC 10031 assessed as reduction in biofilm viability at […] ug/ml relative to control; assay type: functional; details: dose […] microg/ml; 1.56 ug/mL
Klebsiella pneumoniae [36] = assay: Antibiofilm activity against 24 hrs preformed biofilm in Klebsiella pneumoniae ATCC 10031 assessed as reduction in biofilm viability at 3.125 ug/ml relative to control; assay type: functional; details: dose 3.125 µg/ml
Klebsiella pneumoniae [37] = assay: Antibiofilm activity against 24 hrs preformed biofilm in Klebsiella pneumoniae ATCC 10031 assessed as reduction in biofilm viability at 25 ug/ml relative to control; assay type: functional; details: dose 25 µg/ml
Staphylococcus aureus [38] = assay: Induction of resistance development in Staphylococcus aureus ATCC 29213 assessed as fold increase in MIC treated over 20 serial passages by microdilution assay; assay type: functional
Klebsiella pneumoniae [39] = assay: Induction of resistance development in Klebsiella pneumoniae ATCC 10031 assessed as fold increase in MIC treated over 20 serial passages by microdilution assay; assay type: functional
Pseudomonas aeruginosa [40] = assay: Antibacterial activity against Pseudomonas aeruginosa ATCC 9027 infected in cyclophosphamide immunosuppressed keratitis mouse model assessed as log reduction in number of viable bacterial colonies at 10 mg/ml administrated tropically; assay type: functional

CCCCCCCN1c2ccccc2Sc2ccc(OCC(=O)N[C@@H](CCCNC(=N)N)C(=O)N[C@@H](CCCNC(=N)N)C(N)=O)cc21
selectivity ratio [1]: 8 | viability at 6.25 ug/ml [2]: 91.2% | MIC (Staphylococcus aureus [3]): 1.56 µg/mL (≈ 2.28 µM) | HC50 [4]: 281 µg/mL | viability at 50 ug/ml [5]: 68.1% | CC50 [6]: > 50 µg/mL and 73.3 µM | CC50 [7]: > 50 µg/mL and 73.3 µM | viability at 3.125 ug/ml [8]: 97.9% | viability at 25 ug/ml [9]: 70.8% | viability at 6.25 ug/ml [10]: 87.7% | viability at 25 ug/ml [11]: 74.4% | log(activity) (Klebsiella pneumoniae [12]): >3 | Activity (Klebsiella pneumoniae [13]): >99.9% | selectivity ratio [14]: 8 | selectivity ratio [15]: 8 | selectivity ratio [16]: 8 | selectivity ratio [17]: 8 | MIC (Staphylococcus aureus [18]): 1.56 µg/mL | MIC (Staphylococcus aureus [19]): 3.12 µg/mL | MIC (Staphylococcus aureus [20]): 1.56 µg/mL | MIC (Staphylococcus aureus [21]): 1.56 µg/mL | MIC (Staphylococcus aureus [22]): 1.56 µg/mL | MIC (Klebsiella pneumoniae [23]): 3.12 µg/mL | MIC (Klebsiella pneumoniae [24]): 6.25 µg/mL | MIC (Klebsiella pneumoniae [25]): 3.12 µg/mL | MIC (Pseudomonas aeruginosa [26]): 6.25 µg/mL | Activity (Staphylococcus aureus [27]): Dose-Dependent Effect | Activity (Klebsiella pneumoniae [28]): Dose-Dependent Effect | Activity (Staphylococcus aureus [29]): Active | inhibition (Staphylococcus aureus [30]): Dose-Dependent Effect | inhibition at 0.39 µg/mL (Staphylococcus aureus [31]): 5.85% | inhibition at 0.78 µg/mL (Klebsiella pneumoniae [32]): 27.1% | inhibition at 3.125 µg/mL (Klebsiella pneumoniae [33]): 73.8% | Activity (Staphylococcus aureus [34]): 9.12% | Activity (Klebsiella pneumoniae [35]): 73.4% | Activity (Klebsiella pneumoniae [36]): 34.26% | Activity (Klebsiella pneumoniae [37]): 4.13% | fold change (FC) (Staphylococcus aureus [38]): < 4 | fold change (FC) (Klebsiella pneumoniae [39]): < 4 | log(activity) (Pseudomonas aeruginosa [40]): 5.93
